# Laboratory results reported in patent US10273263B2, “Pro-drug forming compounds” (priority 2013, dated 2019).
# Assays:
# [1] = biological target: human carbonic anhydrase II (hCA 2) (Homo sapiens, UniProt P00918); assay: Human Carbonic Anhydrase II inhibition; assay type: biochemical; settings: read-out: hCAII (IC50 nM)
# sulfatase = biological target: T1, sulfatase (Homo sapiens, UniProt P08842); settings: in women; cited from earlier work
# T1 construct: host or cells: in vivo, women
# T1 sequence (P08842 22-583): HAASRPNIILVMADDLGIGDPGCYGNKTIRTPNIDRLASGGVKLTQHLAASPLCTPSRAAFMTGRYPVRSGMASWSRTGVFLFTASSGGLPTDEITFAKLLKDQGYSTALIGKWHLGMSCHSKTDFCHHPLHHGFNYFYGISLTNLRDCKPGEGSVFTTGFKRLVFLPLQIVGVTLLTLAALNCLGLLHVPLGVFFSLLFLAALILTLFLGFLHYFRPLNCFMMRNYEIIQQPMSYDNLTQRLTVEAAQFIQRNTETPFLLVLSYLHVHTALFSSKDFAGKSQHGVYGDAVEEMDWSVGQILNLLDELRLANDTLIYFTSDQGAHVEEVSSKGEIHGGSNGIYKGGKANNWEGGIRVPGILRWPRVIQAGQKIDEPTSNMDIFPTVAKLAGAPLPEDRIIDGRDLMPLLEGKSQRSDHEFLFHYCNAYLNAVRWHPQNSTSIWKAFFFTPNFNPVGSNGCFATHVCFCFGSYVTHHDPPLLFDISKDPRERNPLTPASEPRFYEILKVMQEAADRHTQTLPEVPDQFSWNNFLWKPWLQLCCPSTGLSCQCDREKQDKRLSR
# [2] = tested on: ovarectomized female rats; settings: compared with estradiol and ethinyl estradiol; cited from earlier work
# [3] = oral biological activity: % uterine weight increase compared to vehicle; assay type: in vivo, rat; settings: Rattus norvegicus; oral, 30.0 μg
# Method: Exemplary compounds were tested for: oral biological activity (Table 1); binding to human carbonic anhydrase II (hCA 2) (Table 2); and, for some compounds enzymatic saponification (Table 3).
smiles,measurement,setting,value
"C[C@]12CCC3c4ccc(OS(N)(=O)=O)cc4CCC3C1CC[C@@H]2O (stereo partly drawn) [Compound J995, (13S,17S)-17-hydroxy-13-methyl-7,8,9,11,12,13,14,15,16,17-decahydro-6H-cyclopenta[a]phenanthren-3-yl sulfamate, reference compound]",IC50,[1],295 nM
same,inhibition of sulfatase,sulfatase,acted as an inhibitor of sulfatase
same,estrogenic activity after oral administration,[2],higher estrogenic activity after oral administration than estradiol and ethinyl estradiol
same,change in vivo at 0.03 mg,[3],203%
